In brackets after ≈: the same amount, converted by molar mass. Like-named read-outs stand apart in the source and are kept apart here.
Columns and labels:
[1] = mouse, cited from earlier work
[2] = Equilibrium solubility of elacridar in microemulsion components; format: physicochemical; settings: 37 °C, oil or lipid, thermodynamic from solid
[3] = FVB, mouse, brain, oral, 20 mg/kg

| solubility at 24 h ([2]; Captex 300 (oil)) | solubility at 24 h ([2]; Captex 355 (oil)) | concentration at 1 h [3] | SMILES | bioavailability ([1]; intraperitoneal dose, suspension) | bioavailability ([1]; oral dose, suspension at 100 mg/kg) |
| --- | --- | --- | --- | --- | --- |
| 300 ± 1 µg/mL (≈ 532 µM) | 300 ± 1 µg/mL (≈ 532 µM) |  | COc1cc2c(cc1OC)CN(CCc1ccc(NC(=O)c3cccc4c(=O)c5cccc(OC)c5[nH]c34)cc1)CC2 [elacridar, N-(4-(2-(1,2,3,4-tetrahydro-6,7-dimethoxy-2-isoquinolinyl)ethyl)phenyl)-9,10-dihydro-5-methoxy-9-oxo-4-acridine carboxamide] | ~1% | about 22% |
|  |  | 76.4 ± 7.8 ng/mL | C#Cc1cccc(Nc2ncnc3cc(OCCOC)c(OCCOC)cc23)c1 [erlotinib] |  |  |
